EP0347733A1, “Optically active hydantoin derivatives” (Eisai Co., Ltd., priority 1988, dated 1989)

How the values were obtained:
[1] = tested on: aconitine-induced arrhythmia; test: aconitine-induced arrhythmia model of mice; assay type: in vivo; conditions: orally administered one hour before intraperitoneal injection of 0.1 mg/kg of aconitine, tachycardia and frequency of ventricular extrasystole from the electrocardiogram, 60 min
Experimental: The antiarrythmic activity of the compound of the present invention was examined with aconitine-induced arrhythmia model of mice. When 0.1 mg/kg of aconitine is intraperitoneally injected, usually ventricular tachycardia occurs within 20 minutes. The compound of the present invention (d- or ℓ-compound) was orally administered one hour before the intraperitoneal injection of 0.1 mg/kg of aconitine and the tachycardia and the frequency of ventricular extrasystole were determined from the electrocardiogram to determine the antiarrhythmic activity (ED₅₀). The ED₅₀ of the d-compound was 40 mg/kg and that of the ℓ-compound was 5 mg/kg.

mice = test: acute toxicity tests with mice; assay type: in vivo
Experimental: In the acute toxicity tests with mice, LD₅₀ of the d-compound was 700 mg/kg and that of the ℓ-compound was 200 mg/kg.

myocardial contraction = test: influence on myocardial contraction; conditions: amount several times as much as the antiarrhythmically effective amount
Excerpt: One of the pharmacological features of the compounds of the present invention is that they inhibit myocardial contraction only very slightly. This is a quite desirable property when they are used as the antiarrhythmic agents.

| SMILES | antiarrhythmic activity (ED₅₀) [1] [mg/kg] | LD₅₀ (mice) [mg/kg] | influence on the myocardial contraction (myocardial contraction) |
| --- | --- | --- | --- |
| CC1(C)CC2(NC(=O)N(CCCN3CCC(O)CC3)C2=O)c2cc(Cl)ccc2O1 (single isomer, unassigned) [d-compound, d-6-Chloro-2,2-dimethyl-1′-[3-(4-hydroxypiperidino)propyl]spiro[chroman-4,4′-imidazolidine]-2′,5′-dione] | 40 | 700 |  |
| CC1(C)CC2(NC(=O)N(CCCN3CCC(O)CC3)C2=O)c2cc(Cl)ccc2O1 (single isomer, unassigned) [ℓ-compound, ℓ-6-Chloro-2,2-dimethyl-1′-[3-(4-hydroxypiperidino)propyl]spiro[chroman-4,4′-imidazolidine]-2′,5′-dione] | 5 | 200 |  |
| CC(C)N(CCC(C(N)=O)(c1ccccc1)c1ccccn1)C(C)C (stereo not drawn) [disopyramide] |  |  | reduce myocardial contraction |
| C=C[C@H]1C[N@@]2CC[C@H]1C[C@@H]2[C@@H](O)c1ccnc2ccc(OC)cc12 [quinidine] |  |  | reduce myocardial contraction |
